Source: patent publication US20020094522A1, “Means and methods for monitoring non-nucleoside reverse transcriptase inhibitor antiretroviral therapy and guiding therapeutic decisions in the treatment of HIV/AIDS” (priority 2000, published 2002)

Key:
Format in all cases: cell-based, HIV-1
[1] = test system: RTV-300 (patient sample 97-300); experiment: Phenotypic susceptibility assay, RTV-300; settings: RTV-300, patient-derived pool
Experimental: (§1) Transfections were performed using a calcium-phosphate precipitation procedure. […] Cell lysates were assayed for luciferase activity (FIG. 3).
(§2) The drug inhibition curves are shown in (FIG. 3).
A resistance test vector was constructed as described in Example 1 from a patient sample designated 97-300. This patient had been previously treated with d4T and 3TC (NRTIs), indinavir (a PRI) and efavirenz (an NNRTI). Isolation of viral RNA and RT/PCR was used to generate a patient derived segment that comprised viral sequences coding for all of PR and aa 1-313 of RT. The PDS was inserted into an indicator gene viral vector to generate a resistance test vector designated RTV-300. RTV-300 was then tested in a phenotypic assay to determine accurately and quantitatively the level of susceptibility to a panel of anti-retroviral drugs. […] An IC50 was determined for the resistance test vector pool for each drug tested. The pattern of susceptibility to all of the drug tested was examined and compared to known patterns of susceptibility.

[2] = test system: RTV-955 (patient sample 98-955); experiment: Phenotypic susceptibility assay, RTV-955; settings: RTV-955, patient-derived pool
Experimental: as §1, §2
A resistance test vector was constructed as described in Example 1 from a patient sample designated 98-955. This patient had been previously treated with nelfinavir (a PRI) Isolation of viral RNA and RT/PCR was used to generate a patient derived segment that comprised viral sequences coding for all of PR and aa 1-313 of RT. The PDS was inserted into an indicator gene viral vector to generate a resistance test vectors designated RTV-955. RTV-955 was then tested in a phenotypic assay to determine accurately and quantitatively the level of susceptibility to a panel of anti-retroviral drugs. […] An IC50 was determined for the resistance test vector pool for each drug tested. The pattern of susceptibility to all of the drugs tested was examined and compared to known patterns of susceptibility.

[3] = test system: P236L-RTV (HIV reverse transcriptase P236L); experiment: Phenotypic susceptibility assay, P236L-RTV; settings: P236L mutation alone
Experimental: as §1, §2
(§3) Resistance test vectors were constructed containing the P236L mutation alone and in combination with other known drug resistance mutations (K103N, Y181C) that are known to modulate the susceptibility of HIV-1 to NNRTIs. […] The P236L mutation was also introduced into a RTV containing mutations at K103N, Y181C or both (K103N+Y181C).

[4] = test system: RTV-1058 Clone 10 (L100I, K103N and Y188L); experiment: Phenotypic susceptibility assay, RTV-1058 clone 10
Experimental: The resistance test vectors containing a functional luciferase gene cassette were constructed and host cells were transfected with the resistance test vector DNA. The resistant test vectors contained patient-derived reverse transcriptase and protease sequences that were either susceptible or resistant to the antiretroviral agents, such as nucleoside reverse transcriptase inhibitors, non-nucleoside reverse transcriptase inhibitors and protease inhibitors. […] The IC50 values were determined by plotting percent drug inhibition vs. log10 drug concentration.
Host cells were seeded in 10-cm-diameter dishes and were transfected several days after plating with resistance test vector plasmid DNA and the envelope expression vector. […] HIV capsid protein (p24) levels in the harvested cell culture media were determined by an EIA method as described by the manufacturer (SIAC; Frederick, Md.). […] The inhibitory effect of the drug was determined using the following equation: […]
A resistance test vector was constructed as described in Example 1 from a patient sample designated 98-1058. […] An IC50 was determined for the resistance test vector pool for each drug tested.

[5] = test system: RTVs containing P236L plus K103N, Y181C or both (K103N+Y181C); experiment: Phenotypic susceptibility assay, P236L added to K103N, Y181C or both; settings: P236L with K103N
Experimental: as §1, §2, §3

[6] = test system: RTVs containing P225H plus K103N, Y181C or both (K103N+Y181C); experiment: Phenotypic susceptibility assay, P225H added to K103N, Y181C or both; settings: P225H with K103N
Experimental: as §1, §2
Resistance test vectors were constructed containing the P225H mutation alone and in combination with other known drug resistance mutations (K103N, Y181C) known to modulate the HIV susceptibility to NNRTIs. […] (Sakar G and Sommar SS (1994) Biotechniques 8(4), 404-407). […] The pattern of phenotypic susceptibility to the NNRTI, delavirdine in the P225H-RTV was altered as compared to wild type.

[7] = test system: RTV-302 (patient sample 97-302; K103N, P225H); experiment: Phenotypic susceptibility assay, RTV-302; settings: RTV-302, patient-derived
Experimental: as §1, §2
A resistance test vector was constructed as described in example 1 from a patient sample designated as 97-302. This patient had been treated with d4T, indinavir and DMP-266 for a period of approximately 10 months. Isolation of viral RNA and RT/PCR was used to generate a patient derived segment that comprised viral sequences coding for all of PR and aa 1-313 of RT. The patient derived segment was inserted into a indicator gene viral vector to generate a resistance test vector designated RTV-302. RTV-302 was tested using a phenotypic susceptibility assay to determine accurately and quantitatively the level of susceptibility to a panel of anti-retroviral drugs. […] An IC50 was determined for each drug tested. Susceptibility of the patient virus to each drug was examined and compared to known patterns of susceptibility.

Compound | fold decrease in susceptibility (IC50) [1] | fold decrease in susceptibility (IC50) [2] [fold] | change in susceptibility compared to wild type reference RTV [3] | fold loss of susceptibility (IC50) [4] | change in susceptibility compared to the corresponding RTV lacking P236L [5] | change in susceptibility compared to the corresponding RTV lacking P225H [6] | change in susceptibility [7]
Cc1ccnc2c1NC(=O)c1cccnc1N2C1CC1 [nevirapine] | greater than 800 fold | 530 | no significant change in nevirapine susceptibility | greater than 800 fold | did not significantly alter nevirapine susceptibility | did not significantly change nevirapine susceptibility | significant decrease in nevirapine susceptibility
CC(C)Nc1cccnc1N1CCN(C(=O)c2cc3cc(NS(C)(=O)=O)ccc3[nH]2)CC1 [delavirdine] | 25 fold | 4 | less susceptible to delavirdine than a wild type reference RTV | greater than 250 fold | less susceptible (more resistant) to delavirdine if the P236L mutation was present | more susceptible to inhibition by delavirdine if the P225H mutation was present | modest decrease in delavirdine susceptibility
